Data on 33 compounds can be found in ChEMBL document CHEMBL2434841, “Computational neural network analysis of the affinity of 2-pyridyl-3,5-diaryl pyrroles analogs for the human glucagon receptor using density functional theory” (Med Chem Res, 2013).

This experiment deals with Glucagon receptor (Homo sapiens, UniProt P47871). In words: Antagonist activity at human glucagon receptor.
Chain of Glucagon receptor (P47871 whole entry): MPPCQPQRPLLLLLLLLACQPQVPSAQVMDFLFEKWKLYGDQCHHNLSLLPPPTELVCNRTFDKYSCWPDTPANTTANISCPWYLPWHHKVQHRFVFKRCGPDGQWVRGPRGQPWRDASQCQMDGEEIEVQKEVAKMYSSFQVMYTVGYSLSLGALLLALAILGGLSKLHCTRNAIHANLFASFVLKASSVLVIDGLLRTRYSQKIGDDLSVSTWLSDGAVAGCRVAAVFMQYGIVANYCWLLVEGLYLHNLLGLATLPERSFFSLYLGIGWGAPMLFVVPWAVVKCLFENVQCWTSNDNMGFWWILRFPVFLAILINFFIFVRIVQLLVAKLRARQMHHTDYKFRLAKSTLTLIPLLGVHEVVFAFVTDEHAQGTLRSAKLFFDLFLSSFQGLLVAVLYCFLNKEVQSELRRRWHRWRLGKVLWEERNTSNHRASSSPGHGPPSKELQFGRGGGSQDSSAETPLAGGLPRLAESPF
`C=CCOc1ccccc1-c1cc(-c2ccc(Cl)cc2)[nH]c1-c1ccncc1` showed an IC50 of 4.74 µM.
`Fc1ccc(-c2cc(-c3ccc(F)cc3)c(-c3ccncc3)[nH]2)cc1` had an IC50 of 0.34 µM.
Take `CC(C)COc1ccccc1-c1cc(-c2ccc(Cl)cc2)[nH]c1-c1ccncc1`: it took 3.77 µM to reach half-maximal inhibition (IC50). Compared with the last compound, the IC50 is about 11-fold higher.
To `N#Cc1ccc(-c2cc(-c3ccc(F)cc3)c(-c3ccncc3)[nH]2)cc1` belongs 0.05 µM; to `CCc1ccc(-c2cc(-c3ccc(F)cc3)c(-c3ccncc3)[nH]2)cc1`, 1.36 µM.
As for `O=C(O)c1ccc(-c2cc(-c3ccc(F)cc3)c(-c3ccncc3)[nH]2)cc1`, the figure is 0.0902 µM.
On to `CSc1ccc(-c2cc(-c3ccncc3)c(-c3ccc(F)cc3)[nH]2)cc1`, for which 0.0441 µM corresponded to half-maximal inhibition (IC50).
The compound `COc1ccccc1-c1cc(-c2ccc(Cl)cc2)[nH]c1-c1ccncc1` gave an IC50 of 2.65 µM. Against the preceding compound, the IC50 is about 60-fold higher.
The compound `Cc1cc(-c2ccc(F)cc2)c(-c2ccncc2)[nH]1` showed an IC50 of 0.321 µM.
As for `Fc1ccc(-c2cc(-c3cccc(Cl)c3)[nH]c2-c2ccncc2)cc1`, the figure is 0.421 µM; as for `CCOC(=O)c1ccc(-c2cc(-c3ccc(F)cc3)c(-c3ccncc3)[nH]2)cc1`, 0.26 µM.
The compound `Fc1ccc(-c2cc(C3CCCCC3)[nH]c2-c2ccncc2)cc1` had an IC50 of 0.18 µM.
As for `Cc1ccc(-c2cc(-c3ccc(F)cc3)c(-c3ccncc3)[nH]2)cc1`, the figure is 1.69 µM; as for `CSc1ccc(C2=NC(c3ccncc3)=C(c3ccc(F)cc3)C2)cc1`, 1.23 µM; as for `Fc1ccc(-c2cc(-c3ccc(Cl)cc3Cl)[nH]c2-c2ccncc2)cc1`, 0.421 µM.
`COc1ccc(-c2cc(-c3ccc(Cl)cc3)[nH]c2-c2ccncc2)cc1` showed an IC50 of 1.15 µM. Against the preceding compound, the IC50 is about 2.7-fold higher.
Compound `CCCOc1ccccc1-c1cc(-c2ccc(Cl)cc2)[nH]c1-c1ccncc1` showed an IC50 of 2.84 µM.
To `Fc1ccc(-c2cc(-c3ccccc3)[nH]c2-c2ccncc2)cc1` belongs 0.802 µM.
`C[S+]([O-])c1ccc(C2=NC(c3ccncc3)=C(c3ccc(F)cc3)C2)cc1` (stereo not drawn) had an IC50 of 0.671 µM.
To `C[S+]([O-])c1ccc(-c2cc(-c3ccncc3)c(-c3ccc(F)cc3)[nH]2)cc1` (stereo not drawn) belongs 0.00531 µM; to `Clc1ccc(-c2cc(-c3ccc(Cl)cc3)c(-c3ccncc3)[nH]2)cc1`, 0.16 µM; to `Clc1ccc(-c2cc(-c3ccc(Br)cc3)c(-c3ccncc3)[nH]2)cc1`, 0.301 µM.
Turning to `COc1cccc(-c2cc(-c3ccc(Cl)cc3)[nH]c2-c2ccncc2)c1`, the IC50 is 0.421 µM.
As for `O=[N+]([O-])c1ccc(-c2cc(-c3ccc(F)cc3)c(-c3ccncc3)[nH]2)cc1`, the figure is 0.05 µM.
As for `CCCOc1ccc(Br)cc1-c1cc(-c2ccc(Cl)cc2)[nH]c1-c1ccncc1`, the figure is 1.44 µM.
With `Nc1ccc(-c2cc(-c3ccc(F)cc3)c(-c3ccncc3)[nH]2)cc1`, the half-inhibitory concentration (IC50) was 0.19 µM.
On to `COc1ccc(-c2cc(-c3ccc(F)cc3)c(-c3ccncc3)[nH]2)cc1`, for which inhibition was half-maximal at 2.81 µM (IC50).
To `Clc1ccc(-c2cc(-c3cccc(Br)c3)c(-c3ccncc3)[nH]2)cc1` belongs 0.0802 µM; to `Fc1ccc(-c2cc[nH]c2-c2ccncc2)cc1`, 0.16 µM; to `CCOc1ccccc1-c1cc(-c2ccc(Cl)cc2)[nH]c1-c1ccncc1`, 14.2 µM.
For the compound `Fc1ccc(-c2cc(-c3ccc(Cl)cc3)[nH]c2-c2ccncc2)cc1`, 1.4 µM corresponded to half-maximal inhibition (IC50).
To `Clc1ccc(-c2cc(-c3ccccc3)c(-c3ccncc3)[nH]2)cc1` belongs 0.21 µM; to `Clc1ccc(-c2cc(-c3ccccc3Br)c(-c3ccncc3)[nH]2)cc1`, 1 µM.

What is called IC50 is the midpoint of a concentration-inhibition curve. High values mean lower potency, low ones higher potency.
